According to patent publication US20240116985A1, “STAPLED PEPTIDES AND METHODS THEREOF” (priority 2020, published 2024):
Values after ≈ are worked out from the molar mass of the structure shown. Where two headings read alike, the source gives them in different places.

Legend:
[1] = target: T1, full-length beta-Catenin (Uniprot ID P35222) (Homo sapiens, UniProt P35222); assay: Fluorescence polarization IC50 (beta-catenin / 5FAM-TCF4 10-53 competition); assay type: binding; details: fluorescence polarization
T1 construct: 10 nM full-length beta-Catenin (Uniprot ID P35222)
T1 sequence (P35222 1-781): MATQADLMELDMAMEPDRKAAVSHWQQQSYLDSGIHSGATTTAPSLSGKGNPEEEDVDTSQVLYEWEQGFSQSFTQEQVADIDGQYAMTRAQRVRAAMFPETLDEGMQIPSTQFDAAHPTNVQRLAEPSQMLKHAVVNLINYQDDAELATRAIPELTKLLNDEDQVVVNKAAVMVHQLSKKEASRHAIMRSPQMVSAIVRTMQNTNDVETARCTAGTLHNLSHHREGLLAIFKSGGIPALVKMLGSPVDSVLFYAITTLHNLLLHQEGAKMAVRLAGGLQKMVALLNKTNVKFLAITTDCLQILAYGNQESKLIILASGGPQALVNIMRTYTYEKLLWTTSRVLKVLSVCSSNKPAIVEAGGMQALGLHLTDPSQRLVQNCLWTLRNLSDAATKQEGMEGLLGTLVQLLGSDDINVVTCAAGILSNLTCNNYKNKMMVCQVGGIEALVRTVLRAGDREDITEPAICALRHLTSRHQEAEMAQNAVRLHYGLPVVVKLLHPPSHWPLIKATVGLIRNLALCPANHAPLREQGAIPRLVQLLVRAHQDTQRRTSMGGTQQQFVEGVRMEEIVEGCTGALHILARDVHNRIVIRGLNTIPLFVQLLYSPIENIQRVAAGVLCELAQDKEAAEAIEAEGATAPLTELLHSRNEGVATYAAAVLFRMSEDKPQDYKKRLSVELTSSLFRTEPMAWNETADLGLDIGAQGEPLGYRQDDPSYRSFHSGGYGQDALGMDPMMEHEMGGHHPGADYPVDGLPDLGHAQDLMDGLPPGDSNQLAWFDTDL

Solubility in PBS = assay type: physicochemical
Outline: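 PBS sample ultracentrifuged; supernatant run on HPLC vs. 50 μM peptide in DMSO standard. Solubility = (PBS peak area / DMSO peak area) × 50 uM.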

[2] = beta-catenin, read-out: FP EC50

Row | SMILES | IC50 ([1]; read-out: beta-Catenin FP IC50) [nM] | Solubility (Solubility in PBS) [µM] | IC50 [1, 2] [nM] | Solubility (Solubility in PBS; Solubility (uM)) [µM]
1 | CC(=O)N1CCC[C@]12CC=CCCCC1(CCCC=CCCCOC(=O)N3CC[C@@](C(=O)N[C@@H](Cc4ccccc4Cl)C(=O)N[C@@H](Cc4csc5ccccc45)C(=O)N[C@@H](CCC(N)=O)C(N)=O)(C3)NC(=O)[C@H](CC(C)C)NC(=O)[C@H](Cc3ccccc3)NC(=O)[C@H](C)NC(=O)[C@H](C)NC(=O)[C@H]([C@@H](C)O)NC(=O)[C@H](CC(=O)O)NC1=O)NC(=O)[C@H](CC(C)(C)C)NC(=O)[C@H](CC(=O)O)NC2=O (stereo partly drawn) [I-1169, Ac-PL3-Asp-Npg-B5-Asp-Thr-Ala-Ala-Phe-Leu-PyrS2-2C1F-BztA-Gln-NH2] | 159 | 10 (≈ 19.3 µg/mL) |  | 
2 | CC(=O)N1CCC[C@]12CC=CCCCC1(CCCC=CCCCOC(=O)N3CC[C@@](C(=O)N[C@@H](Cc4ccsc4)C(=O)N[C@@H](Cc4csc5ccccc45)C(=O)N[C@@H](CCC(N)=O)C(N)=O)(C3)NC(=O)[C@H](CC(C)C)NC(=O)[C@H](Cc3ccccc3)NC(=O)[C@H](C)NC(=O)[C@H](C)NC(=O)[C@H]([C@@H](C)O)NC(=O)[C@H](CC(=O)O)NC1=O)NC(=O)[C@H](CC1CCCCC1)NC(=O)[C@H](CC(=O)O)NC2=O (stereo partly drawn) [I-1174, Ac-PL3-Asp-Cha-B5-Asp-Thr-Ala-Ala-Phe-Leu-PyrS2-3Thi-BztA-Gln-NH2] | 43 | 10 (≈ 19.3 µg/mL) |  | 
3 | CC(=O)N1CCC[C@]12CC=CCCCC1(CCCC=CCCCOC(=O)N3CC[C@@](C(=O)N[C@@H](Cc4ccsc4)C(=O)N[C@@H](Cc4csc5ccccc45)C(=O)N[C@@H](CCC(N)=O)C(N)=O)(C3)NC(=O)[C@H](CC(C)C)NC(=O)[C@H](Cc3ccccc3)NC(=O)C(C)(C)NC(=O)C(C)(C)NC(=O)[C@H](CC(=O)O)NC(=O)[C@H](CC(=O)O)NC1=O)NC(=O)[C@H](CC(C)(C)C)NC(=O)[C@H](CC(=O)O)NC2=O (stereo partly drawn) [I-1179, Ac-PL3-Asp-Npg-B5-Asp-Asp-Aib-Aib-Phe-Leu-PyrS2-3Thi-BztA-Gln-NH2] | 346 | 44 (≈ 85.6 µg/mL) | 346 | 
4 | CC(=O)N1CCC[C@H]1C(=O)N[C@@H](CC(=O)O)C(=O)N[C@@H](CC(C)(C)C)C(=O)N[C@]1(C)CCCC=CCCCOC(=O)N2CC[C@@](C(=O)N[C@@H](Cc3ccsc3)C(=O)N[C@@H](Cc3csc4ccccc34)C(=O)N[C@@H](CCC(N)=O)C(N)=O)(C2)NC(=O)[C@H](CC(N)=O)NC(=O)[C@H](Cc2ccccc2)NC(=O)[C@H](C)NC(=O)[C@H](C)NC(=O)[C@H](CC(=O)O)NC(=O)[C@H](CC(=O)O)NC1=O [I-1182, Ac-Pro-Asp-Npg-R5-Asp-Asp-Ala-Ala-Phe-Asn-PyrS2-3Thi-BztA-Gln-NH2] | 144 |  |  | 48 (≈ 88.9 µg/mL)
5 | CC(=O)N1CCC[C@H]1C(=O)N[C@@H](CC(=O)O)C(=O)N[C@@H](CC(C)(C)C)C(=O)N[C@]1(C)CCCC=CCCCOC(=O)N2CC[C@@](C(=O)N[C@@H](Cc3ccccc3Cl)C(=O)N[C@@H](Cc3csc4ccccc34)C(=O)N[C@@H](CCC(N)=O)C(N)=O)(C2)NC(=O)[C@H](CC(N)=O)NC(=O)[C@H](Cc2ccccc2)NC(=O)[C@H](C)NC(=O)[C@H](C)NC(=O)[C@H](CC(=O)O)NC(=O)[C@H](CC(=O)O)NC1=O [I-1183, Ac-Pro-Asp-Npg-R5-Asp-Asp-Ala-Ala-Phe-Asn-PyrS2-2C1F-BztA-Gln-NH2] | 409 | 50 (≈ 94 µg/mL) |  | 
6 | CC(=O)N1CCC[C@H]1C(=O)N[C@@H](CC(=O)O)C(=O)N[C@@H](CC1CCCCC1)C(=O)N[C@]1(C)CCCC=CCCCOC(=O)N2CC[C@@](C(=O)N[C@@H](Cc3ccccc3Cl)C(=O)N[C@@H](Cc3csc4ccccc34)C(=O)N[C@@H](CO)C(N)=O)(C2)NC(=O)[C@H]([C@@H](C)O)NC(=O)[C@H](Cc2ccccc2)NC(=O)[C@H](C)NC(=O)[C@H](C)NC(=O)[C@H](CC(=O)O)NC(=O)[C@H](CC(=O)O)NC1=O [I-1184, Ac-Pro-Asp-Cha-R5-Asp-Asp-Ala-Ala-Phe-Thr-PyrS2-2C1F-BztA-Ser-NH2] | 176 |  |  | 45 (≈ 83.4 µg/mL)
7 | CC(=O)N1CCC[C@]12CC=CCCCC1(CCCC=CCCCCCC[C@@](C)(C(=O)N[C@@H](Cc3ccccc3Cl)C(=O)N[C@@H](Cc3csc4ccccc34)C(=O)N[C@@H](Cc3c[nH]nn3)C(N)=O)NC(=O)[C@H](CC(C)C)NC(=O)[C@H](Cc3ccccc3)NC(=O)[C@H](C)NC(=O)[C@H](C)NC(=O)[C@H](CC(=O)O)NC(=O)[C@H](CC(=O)O)NC1=O)NC(=O)[C@H](CC(C)(C)C)NC(=O)[C@H](CC(=O)O)NC2=O (stereo partly drawn) [I-1192, Ac-PL3-Asp-Npg-B5-Asp-Asp-Ala-Ala-Phe-Leu-S8-2C1F-BztA-4TriA-NH2] | 81.5 | 10 (≈ 19.1 µg/mL) |  | 

Continued by falling IC50 ([1]; read-out: beta-Catenin FP IC50), values first:

Row | IC50 ([1]; read-out: beta-Catenin FP IC50) [nM] | Solubility (Solubility in PBS) [µM] | IC50 [1, 2] [nM] | Solubility (Solubility in PBS; Solubility (uM)) [µM] | SMILES
8 | 169 | 10 (≈ 19.6 µg/mL) |  |  | CC(=O)N1CCC[C@]12CC=CCCCC1(CCCC=CCCCOC(=O)N3CC[C@@](C(=O)N[C@@H](Cc4ccccc4Cl)C(=O)N[C@@H](Cc4csc5ccccc45)C(=O)N[C@@H](CCC(N)=O)C(N)=O)(C3)NC(=O)[C@H](CC(C)C)NC(=O)[C@H](Cc3ccccc3)NC(=O)[C@H](C)NC(=O)[C@H](C)NC(=O)[C@H]([C@@H](C)O)NC(=O)[C@H](CC(=O)O)NC1=O)NC(=O)[C@H](CC1CCCCC1)NC(=O)[C@H](CC(=O)O)NC2=O (stereo partly drawn) [I-1176, Ac-PL3-Asp-Cha-B5-Asp-Thr-Ala-Ala-Phe-Leu-PyrS2-2C1F-BztA-Gln-NH2]
9 | 94.5 | 10 (≈ 18.6 µg/mL) |  |  | CC(=O)N1CCC[C@]12CC=CCCCC1(CCCC=CCCCCCC[C@@](C)(C(=O)N[C@@H](Cc3ccccc3Cl)C(=O)N[C@@H](Cc3csc4ccccc34)C(=O)N[C@@H](CO)C(N)=O)NC(=O)[C@H](CC(C)C)NC(=O)[C@H](Cc3ccccc3)NC(=O)[C@H](C)NC(=O)[C@H](C)NC(=O)[C@H](CC(=O)O)NC(=O)[C@H](CC(=O)O)NC1=O)NC(=O)[C@H](CC(C)(C)C)NC(=O)[C@H](CC(=O)O)NC2=O (stereo partly drawn) [I-1189, Ac-PL3-Asp-Npg-B5-Asp-Asp-Ala-Ala-Phe-Leu-S8-2C1F-BztA-Ser-NH2]
10 | 87 | 31 (≈ 60.3 µg/mL) | 87 |  | CC(=O)N1CCC[C@]12CC=CCCCC1(CCCC=CCCCOC(=O)N3CC[C@@](C(=O)N[C@@H](Cc4ccsc4)C(=O)N[C@@H](Cc4csc5ccccc45)C(=O)N[C@@H](CCC(N)=O)C(N)=O)(C3)NC(=O)[C@H](CC(C)C)NC(=O)[C@H](Cc3ccccc3)NC(=O)C(C)(C)NC(=O)C(C)(C)NC(=O)[C@H](CC(=O)O)NC(=O)[C@H](CC(=O)O)NC1=O)NC(=O)[C@H](CC(C)(C)C)NC(=O)[C@H](CC(=O)O)NC2=O (stereo partly drawn) [I-1180, Ac-PL3-Asp-Npg-B5-Asp-Asp-Aib-Aib-Phe-Leu-PyrS2-3Thi-BztA-Gln-NH2]
11 | 58.5 | 10 (≈ 18.3 µg/mL) |  |  | CC(=O)N1CCC[C@]12CC=CCCCC1(CCCC=CCCCCCC[C@@](C)(C(=O)N[C@@H](Cc3ccsc3)C(=O)N[C@@H](Cc3csc4ccccc34)C(=O)N[C@@H](CO)C(N)=O)NC(=O)[C@H](CC(C)C)NC(=O)[C@H](Cc3ccccc3)NC(=O)[C@H](C)NC(=O)[C@H](C)NC(=O)[C@H](CC(=O)O)NC(=O)[C@H](CC(=O)O)NC1=O)NC(=O)[C@H](CC(C)(C)C)NC(=O)[C@H](CC(=O)O)NC2=O (stereo partly drawn) [I-1190, Ac-PL3-Asp-Npg-B5-Asp-Asp-Ala-Ala-Phe-Leu-S8-3Thi-BztA-Ser-NH2]
12 | 38.5 | 10 (≈ 18.5 µg/mL) |  |  | CC(=O)N1CCC[C@]12CC=CCCCC1(CCCC=CCCCCCC[C@@](C)(C(=O)N[C@@H](Cc3ccsc3)C(=O)N[C@@H](Cc3csc4ccccc34)C(=O)N[C@H](C(N)=O)[C@@H](C)O)NC(=O)[C@H](CC(C)C)NC(=O)[C@H](Cc3ccccc3)NC(=O)[C@H](C)NC(=O)[C@H](C)NC(=O)[C@H](CC(=O)O)NC(=O)[C@H](CC(=O)O)NC1=O)NC(=O)[C@H](CC(C)(C)C)NC(=O)[C@H](CC(=O)O)NC2=O (stereo partly drawn) [I-1191, Ac-PL3-Asp-Npg-B5-Asp-Asp-Ala-Ala-Phe-Leu-S8-3Thi-BztA-Thr-NH2]
